Patent US4396626A, “Cyclic compounds and their use” (Beecham Group Limited, priority 1980, dated 1983)
Structures can show the parent of a compound that is named as a salt.

Columns and labels:
[1] = tested on: phenyl-p-quinone writhing in mice; assay: Analgesic activity: phenyl-p-quinone induced writhing in mice; format: in vivo, male T/O mice; settings: 1 hour prior to phenyl-p-quinone injection, observed 8 minutes, Litchfield and Wilcoxon; for ED50: Mus musculus, po, read-out: ED50 (mice prevented from writhing)
Description: Groups of 10 male T/O mice weighing between 20 and 25 g were injected intraperitoneally with 0.2 ml of a 0.02% solution of phenyl-p-quinone maintained at 37° C. […] Compounds were administered orally 1 hour prior to phenyl-p-quinone injection. The percentage of mice prevented from writhing in each group was plotted against dose of compound on log probit paper and the ED50 was calculated by the method of Litchfield, J. T. and Wilcoxon, F. (1949), J. Pharmac. exp. Ther., 96 (2), 99-113.

[2] = tested on: carrageenin-induced oedema in rat paw; assay: Anti-inflammatory activity: standard rat paw carrageenin-induced oedema test; format: in vivo, male Wistar rats; settings: 1 hr before carrageenin
Description: The sodium salt of compound (1) was tested for anti-inflammatory activity by the standard rat paw carrageenin-induced oedema test:
Groups of 8 male Wistar rats weighing between 120 and 165 g. were dosed orally with the compound 1 hr. before the sub-cutaneous injection of 0.1 ml 1.5% carrageenin into a paw to induce oedema. The duration of the oedema was 3-31/2 hr. The significance of results was assessed by Student's `t` test.

Row | SMILES | ED50 [1] [mg/kg] | ED50 (mice prevented from writhing) ([1]; oral, listed as No salt thereof) [mg/kg p.o.] | % inhibition of oedema w.r.t. methylcellulose control ([2]; 1.67 mg/kg p.o., *0.001 < p < 0.01) [%] | % inhibition of oedema w.r.t. methylcellulose control ([2]; 5 mg/kg p.o., **p < 0.001) [%] | % inhibition of oedema w.r.t. methylcellulose control ([2]; 15 mg/kg p.o., **p < 0.001) [%] | ED25 ([2]; rat, oral, read-out: ED25 (inhibition of oedema)) [mg/kg]
1 | Cn1c(CC(=O)O)cc(C(F)(F)F)c1C(=O)c1ccc(Cl)cc1 [(1), 5-p-Chlorobenzoyl-1-methyl-4-trifluoromethylpyrrole-2-acetic acid] | 1.75 |  |  |  |  | 
2 | CC(=O)CCc1cc(C(F)(F)F)c(C(=O)c2ccc(Cl)cc2)n1C [(13), 4-[5'-(4"-chlorobenzoyl)-1'-methyl-4'-trifluoromethyl-2'-pyroyl]butan-2-one] | 25 |  |  |  |  | 
3 | Cn1c(CC(=O)O)cc(C(F)(F)F)c1C(=O)c1ccc(Cl)cc1 [sodium salt of compound (1)] |  | 1.6 | 18 | 25 | 30 | 5.5
